Assay results from ChEMBL document CHEMBL1201862, “PubChem BioAssay data set” (2004).
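All cell lines were grown in 96-well plates and treated with compound for 48 hours. GI50 marks 50% less growth.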 Activity calls are given as the source filed them. Rule as the data show it: active = GI50 up to about 1.1 µM and inactive = higher.

Key:
Assay in all cases: NCI-60 cell line screen, 48 h
M14 = tested on: M14
U-251 = tested on: U-251
RXF 393 = tested on: RXF 393
TK-10 = tested on: TK-10
SNB-19 = tested on: SNB-19
T47D = tested on: T47D
SK-MEL-5 = tested on: SK-MEL-5
UACC-257 = tested on: UACC-257
SNB-75 = tested on: SNB-75
SK-MEL-28 = tested on: SK-MEL-28
CAKI-1 = tested on: CAKI-1
NCI-H522 = tested on: NCI-H522
MDA-N = tested on: MDA-N
HL-60 = tested on: HL-60
CCRF-CEM = tested on: CCRF-CEM
MCF7 = tested on: MCF7
HOP-92 = tested on: HOP-92
OVCAR-3 = tested on: OVCAR-3
MDA-MB-231 = tested on: MDA-MB-231
UO-31 = tested on: UO-31

Measured: GI50

CCOC(=O)C(=O)NNc1nc2c(s1)C(=O)c1ccccc1C2=O
inactive: M14 2.08 µM | U-251 7.06 µM | RXF 393 4.78 µM | TK-10 24.5 µM | SNB-19 15.1 µM | T47D 17.8 µM | SK-MEL-5 1.86 µM | UACC-257 1.71 µM | SNB-75 3.65 µM | SK-MEL-28 3.06 µM | CAKI-1 20.3 µM | NCI-H522 4.49 µM | MDA-N 1.8 µM | HL-60 1.47 µM | CCRF-CEM 2.34 µM | MCF7 15.6 µM | HOP-92 10.5 µM | OVCAR-3 1.88 µM | MDA-MB-231 2.48 µM | UO-31 2.29 µM

CC(=O)Nc1ccc(S(=O)(=O)c2nnc(NC(C)=O)s2)cc1
inactive: M14 > 100 µM | U-251 > 100 µM | RXF 393 > 100 µM | TK-10 > 100 µM | SNB-19 > 100 µM | T47D > 100 µM | SK-MEL-5 > 100 µM | UACC-257 > 100 µM | SNB-75 > 100 µM | SK-MEL-28 > 100 µM | CAKI-1 > 100 µM | NCI-H522 > 100 µM | MDA-N > 100 µM | HL-60 > 100 µM | CCRF-CEM > 100 µM | MCF7 > 100 µM | HOP-92 > 100 µM | OVCAR-3 > 100 µM | MDA-MB-231 > 100 µM | UO-31 > 100 µM

CC(=O)Oc1ccc2c(c1)CC[C@@H]1C2CC[C@]2(C)C(=O)NC(=O)CC12 (stereo not given in full)
inactive: M14 > 100 µM | U-251 > 100 µM | RXF 393 > 100 µM | TK-10 > 100 µM | SNB-19 > 100 µM | T47D > 100 µM | SK-MEL-5 > 100 µM | UACC-257 > 100 µM | SNB-75 > 100 µM | SK-MEL-28 > 100 µM | CAKI-1 > 100 µM | NCI-H522 > 100 µM | MDA-N > 100 µM | HL-60 > 100 µM | CCRF-CEM > 100 µM | MCF7 > 100 µM | HOP-92 > 100 µM | OVCAR-3 > 100 µM | MDA-MB-231 > 100 µM | UO-31 > 100 µM
